Test results reported in patent US8440594B2, “Pyridothiazines having herbicidal action” (BASF SE, priority 2010, dated 2013).

Key:
Test in all cases: Greenhouse herbicidal activity, post-emergence treatment
Assay type in all cases: in vivo
[1] = tested on: Echinochloa crus-galli (ECHCG); conditions: scale 0 to 100
Source text: (§1) The seeds of the test plants were sown separately for each species. For the post-emergence treatment, the test plants were first grown to a height of 3 to 15 cm, depending on the plant habit, and only then treated with the active ingredients which had been suspended or emulsified in water. For this purpose, the test plants were either sown directly and grown in the same containers, or they were first grown separately as seedlings and transplanted into the test containers a few days prior to treatment. Depending on the species, the plants were kept at 10-25° C. or 20-35° C. The test period extended over 2 to 4 weeks. During this time, the plants were tended, and their response to the individual treatments was evaluated. Evaluation was carried out using a scale from 0 to 100. 100 means no emergence of the plants, or complete destruction of at least the aerial moieties, and 0 means no damage, or normal course of growth. A good herbicidal activity is given at values of at least 70 and a very good herbicidal activity is given at values of at least 85. The plants used in the greenhouse experiments belonged to the following species: [table]

[2] = tested on: Alopecurus myosuroides (ALOMY); conditions: scale 0 to 100
Source text: as §1

Galium aparine (GALAP) = conditions: scale 0 to 100
Source text: as §1

[3] = tested on: Amaranthus retroflexus (AMARE); conditions: scale 0 to 100
Source text: as §1

[4] = tested on: Chenopodium album (CHEAL); conditions: for herbicidal activity against CHEAL: scale 0 to 100; for pest or weed control at 500 g/ha: application rate 0.5 kg/ha
Source text: as §1

Setaria faberi (SETFA) = conditions: application rate 0.5 kg/ha, scale 0 to 100
Source text: as §1

Stellaria media (STEME) = conditions: scale 0 to 100
Source text: as §1

[5] = tested on: Abutilon theophrasti (ABUTH); conditions: application rate 0.25 kg/ha, scale 0 to 100
Source text: as §1

[6] = Chenopodium album, scale 0 to 100, read-out: herbicidal activity against CHEAL
[7] = Chenopodium album, application rate 0.25 kg/ha, scale 0 to 100, read-out: herbicidal activity against CHEAL

Question: Which “herbicidal activity against ECHCG” value ([1]; application rate 0.5 kg/ha) does the source give for `O=S1(=O)C(c2cc(F)ccc2C(F)(F)F)=C(O)c2ncccc2N1CC(F)F` [Compound I-3] here?
Answer: very good herbicidal activity (a very good herbicidal activity is given at values of at least 85)

Question: Which “herbicidal activity against ECHCG” value ([1]; application rate 0.5 kg/ha) does the source give for `O=S1(=O)C(c2ccccc2Cl)=C(O)c2ncccc2N1CC(F)F` [Compound I-5] here?
Answer: good herbicidal activity (A good herbicidal activity is given at values of at least 70)

Question: What does the source list for `O=S1(=O)C(c2cc(Cl)ccc2Cl)=C(O)c2ncccc2N1CC(F)F` [Compound I-7]?
Answer: herbicidal activity against ALOMY ([2]; application rate 0.5 kg/ha): very good herbicidal activity (a very good herbicidal activity is given at values of at least 85); herbicidal activity against GALAP (Galium aparine (GALAP); application rate 0.5 kg/ha): good herbicidal activity (A good herbicidal activity is given at values of at least 70)

Question: `CC1=NOC(c2c(S(C)(=O)=O)ccc(C3=C(O)c4ncccc4N(CC(F)F)S3(=O)=O)c2C)C1` (stereo not shown) [Compound I-8] was tested. Which “herbicidal activity against AMARE” value ([3]; application rate 0.447 kg/ha) did it give?
Answer: very good herbicidal activity (a very good herbicidal activity is given at values of at least 85)

Question: And the “herbicidal activity against CHEAL” value ([4]; application rate 0.447 kg/ha)?
Answer: very good herbicidal activity (a very good herbicidal activity is given at values of at least 85)

Question: Which “herbicidal activity against AMARE” value ([3]; application rate 0.041 kg/ha) does the source give for `Cc1c(C2=C(O)c3ncccc3N(CC(F)F)S2(=O)=O)ccc2c1S(=O)(=O)CCC2(C)C` [Compound I-10] here?
Answer: very good herbicidal activity (a very good herbicidal activity is given at values of at least 85)

Question: What about the “herbicidal activity against CHEAL” value ([4]; application rate 0.041 kg/ha) of the same compound?
Answer: very good herbicidal activity (a very good herbicidal activity is given at values of at least 85)

Question: With `CON=C1CCS(=O)(=O)c2c1ccc(C1=C(O)c3ncccc3N(CC(F)F)S1(=O)=O)c2C` [Compound I-22] as the compound, how does the “herbicidal activity against SETFA” value (Setaria faberi (SETFA)) read?
Answer: good herbicidal activity (A good herbicidal activity is given at values of at least 70)

Question: `CCOc1c(S(=O)(=O)CC)ccc(C2=C(O)c3ncccc3N(CC(C)C)S2(=O)=O)c1Cl` [Compound I-29] was tested. Which “herbicidal activity against AMARE” value ([3]; application rate 0.154 kg/ha) did it give?
Answer: very good herbicidal activity (a very good herbicidal activity is given at values of at least 85)

Question: With `CCCCN1c2cccnc2C(O)=C(c2ccc(S(C)(=O)=O)c(OC)c2C)S1(=O)=O` [Compound I-32] as the compound, how does the pest or weed control at 400 g/ha ([4]; Chenopodium album, application rate 0.4 kg/ha, scale 0 to 100, read-out: herbicidal activity against CHEAL) read?
Answer: ≥ 85%

Question: Which “herbicidal activity against CHEAL” value ([4]; application rate 0.345 kg/ha) does the source give for `COc1c(S(C)(=O)=O)ccc(C2=C(O)c3ncccc3N(CC(C)C)S2(=O)=O)c1C` [Compound I-33] here?
Answer: very good herbicidal activity (a very good herbicidal activity is given at values of at least 85)

Question: And the “herbicidal activity against ECHCG” value ([1]; application rate 0.345 kg/ha)?
Answer: very good herbicidal activity (a very good herbicidal activity is given at values of at least 85)

Question: Which results are given for `CCN1c2cccnc2C(O)=C(c2cccc(OC(F)(F)F)c2Cl)S1(=O)=O` [Compound I-34]?
Answer: pest or weed control at 233 g/ha ([4]; Chenopodium album, application rate 0.233 kg/ha, scale 0 to 100, read-out: herbicidal activity against CHEAL): ≥ 85%; herbicidal activity against STEME (Stellaria media (STEME); application rate 0.233 kg/ha): very good herbicidal activity (a very good herbicidal activity is given at values of at least 85)

Question: How did the pest or weed control at 500 g/ha [4, 6] turn out when `CN1c2cccnc2C(O)=C(c2ccc(Cl)cc2Cl)S1(=O)=O` [Compound I-39] was run?
Answer: ≥ 85%

Question: For `CCN1c2cccnc2C(O)=C(c2ccc(Cl)cc2Cl)S1(=O)=O` [Compound I-40], which pest or weed control at 500 g/ha [4, 6] is on record?
Answer: ≥ 85%

Question: How did the pest or weed control at 500 g/ha [4, 6] turn out when `CCCN1c2cccnc2C(O)=C(c2ccc(Cl)cc2Cl)S1(=O)=O` [Compound I-41] was run?
Answer: ≥ 85%

Question: How did the pest or weed control at 500 g/ha [4, 6] turn out when `CCCCN1c2cccnc2C(O)=C(c2ccc(Cl)cc2Cl)S1(=O)=O` [Compound I-42] was run?
Answer: ≥ 85%

Question: For `CN1c2cccnc2C(O)=C(c2ccccc2Cl)S1(=O)=O` [Compound I-44], which pest or weed control at 100 g/ha ([4]; Chenopodium album, application rate 0.1 kg/ha, scale 0 to 100, read-out: herbicidal activity against CHEAL) is on record?
Answer: ≥ 85%

Question: And the “herbicidal activity against ECHCG” value ([1]; application rate 0.1 kg/ha)?
Answer: very good herbicidal activity (a very good herbicidal activity is given at values of at least 85)

Question: How did the “herbicidal activity against ABUTH” value [5] turn out when `CN1c2cccnc2C(O)=C(c2ccccc2C(F)(F)F)S1(=O)=O` [Compound I-45] was run?
Answer: very good herbicidal activity (a very good herbicidal activity is given at values of at least 85)

Question: With `CC(C)N1c2cccnc2C(O)=C(c2ccccc2Cl)S1(=O)=O` [Compound I-51] as the compound, how does the pest or weed control at 500 g/ha [4, 6] read?
Answer: ≥ 85%

Question: With `O=S1(=O)C(c2cc(Cl)cc(N3CCOCC3)c2C(F)(F)F)=C(O)c2ncccc2N1CC(F)F` [Compound I-56, 3-[5-chloro-3-morpholino-2-(trifluoromethyl)phenyl]-1-(2,2-difluoroethyl)-2,2-dioxo-pyrido[3,2-c]thiazin-4-ol] as the compound, how does the “herbicidal activity against AMARE” value ([3]; application rate 0.25 kg/ha) read?
Answer: good herbicidal activity (A good herbicidal activity is given at values of at least 70)

Question: `CCN1c2cccnc2C(O)=C(c2ccc(Cl)c(C)c2Cl)S1(=O)=O` [Compound I-59] was tested. Which pest or weed control at 154 g/ha ([4]; Chenopodium album, application rate 0.154 kg/ha, scale 0 to 100, read-out: herbicidal activity against CHEAL) did it give?
Answer: ≥ 85%

Question: How did the “herbicidal activity against CHEAL” value ([4]; application rate 0.0625 kg/ha) turn out when `O=S1(=O)C(c2ccc(F)cc2F)=C(O)c2ncccc2N1CC(F)F` [Compound I-62] was run?
Answer: very good herbicidal activity (a very good herbicidal activity is given at values of at least 85)

Question: And the “herbicidal activity against GALAP” value (Galium aparine (GALAP); application rate 0.0625 kg/ha)?
Answer: good herbicidal activity (A good herbicidal activity is given at values of at least 70)

Question: `CCN1c2cccnc2C(O)=C(c2ccc(F)cc2F)S1(=O)=O` [Compound I-63] was tested. Which pest or weed control at 250 g/ha [4, 7] did it give?
Answer: ≥ 85%

Question: Which “herbicidal activity against AMARE” value ([3]; application rate 0.075 kg/ha) does the source give for `CS(=O)(=O)c1ccc(C2=C(O)c3ncccc3N(CC(F)F)S2(=O)=O)c(Cl)c1C1=NOCC1` [Compound I-66] here?
Answer: very good herbicidal activity (a very good herbicidal activity is given at values of at least 85)

Question: What about the “herbicidal activity against CHEAL” value ([4]; application rate 0.075 kg/ha) of the same compound?
Answer: very good herbicidal activity (a very good herbicidal activity is given at values of at least 85)

Question: And the “herbicidal activity against STEME” value (Stellaria media (STEME); application rate 0.075 kg/ha)?
Answer: very good herbicidal activity (a very good herbicidal activity is given at values of at least 85)

Question: How did the “herbicidal activity against CHEAL” value ([4]; application rate 0.25 kg/ha) turn out when `Cc1c(C2=C(O)c3ncccc3N(CC(F)F)S2(=O)=O)ccc2c1C(=O)C(C)(C)CS2(=O)=O` [Compound I-71] was run?
Answer: good herbicidal activity (A good herbicidal activity is given at values of at least 70)

Question: How did the pest or weed control at 250 g/ha [4, 7] turn out when `CCN1c2cccnc2C(O)=C(c2ccc(Br)cc2Cl)S1(=O)=O` [Compound I-81] was run?
Answer: ≥ 85%

Question: For `COC(CN1c2cccnc2C(O)=C(c2ccccc2C(F)(F)F)S1(=O)=O)OC` [Compound I-82], which “herbicidal activity against ALOMY” value ([2]; application rate 0.25 kg/ha) is on record?
Answer: very good herbicidal activity (a very good herbicidal activity is given at values of at least 85)
